Laboratory results from US8329902B2, “Optically pure dihydropyrimidine compounds and their uses for the preparation of a medicament for treatment and prevention of viral diseases” (Beijing Molecule Science And Technology Co., Ltd., priority 2006, dated 2012).
pIC50: −log10 of the molar value.

What was measured:
HepG 2.2.15 cells = test: Cytotoxicity in HepG 2.2.15 cells (cell morphology by microscope after 8 days, Reed & Muench); type: cell-based; details: pathological change of cells after 8 days
Method: (§1) The antiviral test was carried out in a 96-cell microtiter plate. The first column of the plate only contained a culture medium for growth and HepG 2.2.15 cells, as a control. First, a stock solution (50 mmol) of a test compound was dissolved in DMSO, and further diluted with a culture medium for growth for HepG 2.2.15 cells. Usually, the compound of the present invention was transferred by suction at a test concentration of 100 μg/ml (the first test concentration) to each cell of the second column of the microtiter plate, and then diluted with the culture medium for growth plus 2% fetal bovine serum (25 μL), by 2 times once, up to […] at the maximum.
(§2) Then, 225 μL of a suspension of HepG 2.2.15 cells (5×10^4 cells/ml) in the culture medium fro growth plus 2% fetal bovine serum was added to each pore of the 96-cell microtiter plate.
(§3) The test mixture was incubated under the conditions of 37° C., 5% CO2 for 4 days. Then, the supernatant was removed by suction, and to each pore 225 μL of a new-prepared culture medium was added. Again, the compound of the present invention was added by a solution of 25 μL. The obtained mixture was further incubated for 4 days.
Prior to collection of the supernatant for determination of the antiviral effect, the cytotoxicity variation of HepG 2.2.15 cells was investigated by using optical microscopic technique or biochemical test method (e.g., Alamar Blue dyeing or Trypan Blue dyeing).
The substance-induced change in cytotoxicity in HepG 2.2.15 cells or change in inhibition of the cells could be determined by using, e.g., optical microscopic technique, and expressed by the change of cell morphology. Such substance-induced change, e.g., cell lysis, vacuolus formation or change in cell morphology, in HepG 2.2.15 cells was apparent as compared with the untreated cells. Taking the observed pathological change of cells as index, the pathological change of cells was observed under microscope after 8 days, a complete destroy being indicated as 4; 75% being indicated as 3; 50% being indicated as 2; 25% being indicated as 1; and no pathological change being indicated as 0. The average extents of pathological change of cells and the suppression percentages at various concentrations were calculated. According to Reed & Muench method, a half toxic concentration (TC50) and a maximum non-toxic concentration (TC0) were calculated.
TC50 refers to the concentration of the compound of the present invention when 50% of cells have a similar morphology to the corresponding cells as a control.

HBV DNA = test: Antiviral activity: inhibition of HBV DNA in supernatant of HepG 2.2.15 cells (dot blot hybridization); type: cell-based; details: Hepatitis B virus, HepG2.2.15, 192 h, 8 days incubation, 50% reduction of type B hepatitis-specific DNA band
Method: The antiviral effection of the compound of the present invention is determined according to the methods described by Sells, et al in (M. A. Sells M. L. Chen G. Proc. Natl. Acad. Sci. 1987, 84, 1005-1009) and Korba, et al (B. E. Korba, J. L. Gerin Antiviral Research 1992, 19, 55-70).
as §1, §2, §3
Thereafter, the supernatant was collected, and sucked in vacuum to a 96-cell dot blot chamber covered by nylon film (used in accordance with the directions for use given by the manufacturer).
After the supernatant was transferred onto the nylon film of the dot blot device (as described above), the supernatant of HepG 2.2.15 cells was denaturated (1.5 M NaCl/0.5 M NaOH), neutralized (3 M NaCl/0.5 M Tris. HCl, pH 7.5) and washed (2×SSC). Then, the filter film was kept at 120° C. for 2-4 hours, whereby DNA was baked on the filter film.
Usually, viral DNA of HepG 2.2.15 cells treated on the nylon filter film was detected by using a non-radioactive digoxigenin labelled type B hepatitis-specific DNA probe. Wherein, each time the probe was labelled with digoxigenin, purified and hybridized according to the directions for use given by the manufacturer.
Briefly, pre-hybridization and hybridization were conducted with 5×SSC, 1× blocking agent, 0.1% N-lauroyl sarcosine, 0.02% SDS and 100 μg sperm DNA of black carp. After pre-hybridization at 60° C. for 30 min, a specific hybridization (at 60° C. for 14 hr) was conducted with 20-40 ng/ml digoxigenin labelled denaturated I-BV specific DNA. Then, the filter film was washed, followed by digoxigenin antibody detection for HBV DNA. […]

Row | Structure (SMILES) | melting point | TD50 (HepG 2.2.15 cells) | pIC50 (HBV DNA)
1 | CC1=C(C(=O)N[C@H](C)c2ccccc2)[C@H](c2ccc(F)cc2Cl)N=C(c2nccs2)N1 | 224 to 226 °C | – | –
2 | CCOC(=O)C1=C(C)NC(c2cncs2)=N[C@H]1c1ccc(F)cc1Cl [Example 7, (R)-4-(2-chloro-4-fluorophenyl)-6-methyl-2-(5-thiazolyl)-1,4-dihydropyrimidin-5-ethylcarboxylate] | – | >12.5 µM | 5.74
3 | CCOC(=O)C1=C(C)NC(c2c(F)cc(F)cc2F)=N[C@H]1c1ccc(F)cc1Cl [Example 5, (R)-4-(2-chloro-4-fluorophenyl)-6-methyl-2-(2,4,6-trifluorophenyl)-1,4-dihydropyrimidin-5-ethylcarboxylate] | 162 to 165 °C | 13.8 µM | 5.89
4 | CCOC(=O)C1=C(C)NC(c2nccs2)=N[C@H]1c1ccc(F)cc1Cl [Example 2, (R)-4-(2-chloro-4-fluorophenyl)-6-methyl-2-(2-thiazolyl)-1,4-dihydropyrimidin-5-ethylcarboxylate] | – | >62.9 µM | > 6.10
5 | CC1=C(C(=O)OCC(F)(F)F)[C@H](c2ccc(F)cc2Cl)N=C(c2nccs2)N1 [Example 3, (R)-4-(2-chloro-4-fluorophenyl)-6-methyl-2-(2-thiazolyl)-1,4-dihydropyrimidin-5-trifluoroethylcarboxylate] | – | 37.4 µM | 5.29
